Test results reported in ChEMBL document CHEMBL6153094, “Rationally designed highly amphipathic antimicrobial peptides demonstrating superior bacterial selectivity relative to the corresponding α-helix peptide” (Eur J Med Chem, 2025).
Where a SMILES comes first, the peptide text is derived from it. Bridges are numbered along the chain shown (N, C = ends). [ ]: non-standard residue; d: D form. The star is where a group is joined. X1 = CC[C@H](C)CCCCC(=O)*; Dab = NCC[C@H](N)C(=O)O

Legend:
[1] = Acute toxicity in male Balb/c mouse assessed as animal death at 30 mg/kg, ip measured within 30 mins; assay type: organism-based; conditions: in vivo, 0.5 h
[2] = Toxicity in male Balb/c mouse assessed as lethal dose administered intraperitoneally for 7 days; conditions: in vivo, route ip, time 7 day
[3] = Toxicity in male Balb/c mouse assessed as lung bubble contraction at 22.48 mg/kg, ip administered for 7 days by H and E staining based analysis; assay type: organism-based; conditions: in vivo, 168 h, time 7 day
[4] = Toxicity in male Balb/c mouse assessed as alveolar septum thickening at 22.48 mg/kg, ip administered for 7 days by H and E staining based analysis; assay type: organism-based; conditions: in vivo, 168 h, time 7 day
[5] = Toxicity in male Balb/c mouse assessed as inflammatory cell infiltration in lungs at 22.48 mg/kg, ip administered for 7 days by H and E staining based analysis; assay type: organism-based; conditions: in vivo, 168 h, time 7 day
[6] = Toxicity in male Balb/c mouse assessed as edema in liver at 22.48 mg/kg, ip administered for 7 days by H and E staining based analysis; assay type: organism-based; conditions: in vivo, 168 h, time 7 day
[7] = Toxicity in male Balb/c mouse assessed as hemorrhage in liver at 22.48 mg/kg, ip administered for 7 days by H and E staining based analysis; assay type: organism-based; conditions: in vivo, 168 h, time 7 day
[8] = Toxicity in male Balb/c mouse assessed as balloon-like degeneration in liver at 22.48 mg/kg, ip administered for 7 days by H and E staining based analysis; assay type: organism-based; conditions: in vivo, 168 h, time 7 day
Acinetobacter baumannii = assay: Antimicrobial activity against Acinetobacter baumannii ATCC 19606 assessed as inhibition of visible bacterial growth incubated for 18 hrs by broth microdilution method; assay type: functional
Escherichia coli = assay: Antimicrobial activity against Escherichia coli ATCC 25922 assessed as inhibition of visible bacterial growth incubated for 18 hrs by broth microdilution method; assay type: functional
Klebsiella pneumoniae = assay: Antimicrobial activity against Klebsiella pneumoniae ATCC 700603 assessed as inhibition of visible bacterial growth incubated for 18 hrs by broth microdilution method; assay type: functional
Pseudomonas aeruginosa [9] = assay: Antimicrobial activity against Pseudomonas aeruginosa ATCC 27853 assessed as inhibition of visible bacterial growth incubated for 18 hrs by broth microdilution method; assay type: functional
Bacillus subtilis = assay: Antimicrobial activity against Bacillus subtilis ATCC 23857 assessed as inhibition of visible bacterial growth incubated for 18 hrs by broth microdilution method; assay type: functional
[10] = tested on: Staphylococcus epidermidis; assay: Antimicrobial activity against Staphylococcus epidermidis ATCC 12228 assessed as inhibition of visible bacterial growth incubated for 18 hrs by broth-dilution method; assay type: functional
Staphylococcus aureus [11] = assay: Antimicrobial activity against Staphylococcus aureus ATCC 25923 assessed as inhibition of visible bacterial growth incubated for 18 hrs by broth-dilution method; assay type: functional
Enterococcus faecalis = assay: Antimicrobial activity against Enterococcus faecalis ATCC 29212 assessed as inhibition of visible bacterial growth incubated for 18 hrs by broth-dilution method; assay type: functional
Staphylococcus aureus [12] = assay: Antimicrobial activity against methicillin-drug resistant Staphylococcus aureus ATCC 33591 assessed as concentration required to eliminate 90% bacteria incubated for 18 hrs by broth-microdilution method; assay type: functional
Pseudomonas aeruginosa [13] = assay: Antibacterial activity against Pseudomonas aeruginosa ATCC 27853 assessed as fold change in MIC incubated for 18 hrs in presence of NaCl by Mueller-Hinton broth based assay; assay type: functional
Pseudomonas aeruginosa [14] = assay: Antibacterial activity against Pseudomonas aeruginosa ATCC 27853 assessed as fold change in MIC incubated for 18 hrs in presence of KCl by Mueller-Hinton broth based assay; assay type: functional
Staphylococcus aureus [15] = assay: Antibacterial activity against Staphylococcus aureus ATCC 25923 assessed as fold change in MIC incubated for 18 hrs in presence of NaCl by Mueller-Hinton broth based assay; assay type: functional
Staphylococcus aureus [16] = assay: Antibacterial activity against Staphylococcus aureus ATCC 25923 assessed as fold change in MIC incubated for 18 hrs in presence of KCl by Mueller-Hinton broth based assay; assay type: functional
Pseudomonas aeruginosa [17] = assay: Antibacterial activity against Pseudomonas aeruginosa ATCC 27853 assessed as fold change in MIC incubated for 18 hrs in presence of MgCl2 by Mueller-Hinton broth based assay; assay type: functional
Pseudomonas aeruginosa [18] = assay: Antibacterial activity against Pseudomonas aeruginosa ATCC 27853 assessed as fold change in MIC incubated for 18 hrs in presence of ZnCl2 by Mueller-Hinton broth based assay; assay type: functional
Pseudomonas aeruginosa [19] = assay: Antibacterial activity against Pseudomonas aeruginosa ATCC 27853 assessed as fold change in MIC incubated for 18 hrs in presence of FeCl3 by Mueller-Hinton broth based assay; assay type: functional
Staphylococcus aureus [20] = assay: Antibacterial activity against Staphylococcus aureus ATCC 25923 assessed as fold change in MIC incubated for 18 hrs in presence of MgCl2 by Mueller-Hinton broth based assay; assay type: functional
Staphylococcus aureus [21] = assay: Antibacterial activity against Staphylococcus aureus ATCC 25923 assessed as fold change in MIC incubated for 18 hrs in presence of ZnCl2 by Mueller-Hinton broth based assay; assay type: functional
Staphylococcus aureus [22] = assay: Antibacterial activity against Staphylococcus aureus ATCC 25923 assessed as fold change in MIC incubated for 18 hrs in presence of FeCl3 by Mueller-Hinton broth based assay; assay type: functional
Pseudomonas aeruginosa [23] = assay: Antibiofilm activity in Pseudomonas aeruginosa ATCC 27853 assessed as inhibition of biofilm formation at 1 times of MIC incubated for 24 hrs by crystal violet staining based analysis relative to control; assay type: functional
Staphylococcus aureus [24] = assay: Antibiofilm activity in Staphylococcus aureus ATCC 25923 assessed as inhibition of biofilm formation at 1/2 times of MIC incubated for 24 hrs by crystal violet staining based analysis relative to control; assay type: functional
Staphylococcus aureus [25] = assay: Antibiofilm activity in Staphylococcus aureus ATCC 25923 assessed as inhibition of biofilm formation at 1 times of MIC incubated for 24 hrs by crystal violet staining based analysis relative to control; assay type: functional
Staphylococcus aureus [26] = assay: Antibiofilm activity in Staphylococcus aureus ATCC 25923 assessed as inhibition of biofilm formation at 2 times of MIC incubated for 24 hrs by crystal violet staining based analysis relative to control; assay type: functional
Staphylococcus aureus [27] = assay: Antibiofilm activity in Staphylococcus aureus ATCC 25923 assessed as inhibition of biofilm formation at 4 times of MIC incubated for 24 hrs by crystal violet staining based analysis relative to control; assay type: functional
Pseudomonas aeruginosa [28] = assay: Resistance fold, ratio of MIC for Pseudomonas aeruginosa ATCC 27853 measured after 20 passages to MIC for Pseudomonas aeruginosa ATCC 27853 measured immediately; assay type: functional
Staphylococcus aureus [29] = assay: Resistance fold, ratio of MIC for Staphylococcus aureus ATCC 25923 measured after 20 passages to MIC for Staphylococcus aureus ATCC 25923 measured immediately; assay type: functional
Pseudomonas aeruginosa [30] = assay: Resistance fold, ratio of MIC for Pseudomonas aeruginosa ATCC 27853 measured after 20 passages in presence of gentamicin to MIC for Pseudomonas aeruginosa ATCC 27853 measured immediately in presence of gentamicin; assay type: functional
Staphylococcus aureus [31] = assay: Resistance fold, ratio of MIC for Staphylococcus aureus ATCC 25923 measured after 20 passages in presence of gentamicin to MIC for Staphylococcus aureus ATCC 25923 measured immediately in presence of gentamicin; assay type: functional
Pseudomonas aeruginosa [32] = assay: Additive antimicrobial activity against gentamicin-resistant Pseudomonas aeruginosa ATCC 27853 assessed as fractional inhibitory concentration index incubated for 18 hrs in presence of gentamicin by checkerboard microdilution method; assay type: functional
Staphylococcus aureus [33] = assay: Synergistic antimicrobial activity against gentamicin-resistant Staphylococcus aureus ATCC 25923 assessed as fractional inhibitory concentration index incubated for 18 hrs in presence of gentamicin by checkerboard microdilution method; assay type: functional

Compound: CC(C)CCCCC(=O)N[C@@H](CCN)C(=O)N[C@H](C(=O)N[C@@H](CCN)C(=O)N[C@H]1CCNC(=O)[C@H]([C@@H](C)O)NC(=O)[C@H](CCN)NC(=O)[C@H](CCN)NC(=O)[C@H](CC(C)C)NC(=O)[C@@H](Cc2ccccc2)NC(=O)[C@H](CCN)NC1=O)[C@@H](C)O.CC[C@H](C)CCCCC(=O)N[C@@H](CCN)C(=O)N[C@H](C(=O)N[C@@H](CCN)C(=O)N[C@H]1CCNC(=O)[C@H]([C@@H](C)O)NC(=O)[C@H](CCN)NC(=O)[C@H](CCN)NC(=O)[C@H](CC(C)C)NC(=O)[C@@H](Cc2ccccc2)NC(=O)[C@H](CCN)NC1=O)[C@@H](C)O (X1-[Dab]T[Dab][Dab][Dab][dF]L[Dab][Dab]T; lactam 4-C) [listing 1 of 2 here]
- Activity [1]: Toxic
- LD50 at 168 h [2]: 22.5 mg/kg
- Activity [3]: Toxic
- Activity [4]: Toxic
- Activity [5]: Toxic
- Activity [6]: Toxic
- Activity [7]: Toxic
- Activity [8]: Toxic

Compound: CC(C)CCCCC(=O)N[C@@H](CCN)C(=O)N[C@H](C(=O)N[C@@H](CCN)C(=O)N[C@H]1CCNC(=O)[C@H]([C@@H](C)O)NC(=O)[C@H](CCN)NC(=O)[C@H](CCN)NC(=O)[C@H](CC(C)C)NC(=O)[C@@H](Cc2ccccc2)NC(=O)[C@H](CCN)NC1=O)[C@@H](C)O.CC[C@H](C)CCCCC(=O)N[C@@H](CCN)C(=O)N[C@H](C(=O)N[C@@H](CCN)C(=O)N[C@H]1CCNC(=O)[C@H]([C@@H](C)O)NC(=O)[C@H](CCN)NC(=O)[C@H](CCN)NC(=O)[C@H](CC(C)C)NC(=O)[C@@H](Cc2ccccc2)NC(=O)[C@H](CCN)NC1=O)[C@@H](C)O (X1-[Dab]T[Dab][Dab][Dab][dF]L[Dab][Dab]T; lactam 4-C) [listing 2 of 2 here]
- MIC (Acinetobacter baumannii): < 1 µM
- MIC (Escherichia coli): < 1 µM
- MIC (Klebsiella pneumoniae): < 1 µM
- MIC (Pseudomonas aeruginosa [9]): < 1 µM
- MIC (Bacillus subtilis): 8 µM
- MIC [10]: 8 µM
- MIC (Staphylococcus aureus [11]): 16 µM
- MIC (Enterococcus faecalis): 128 µM
- EC90 (Staphylococcus aureus [12]): 11.1 µM
- fold change (FC) (Pseudomonas aeruginosa [13]): 2
- fold change (FC) (Pseudomonas aeruginosa [14]): <=2
- fold change (FC) (Staphylococcus aureus [15]): 8
- fold change (FC) (Staphylococcus aureus [16]): <=2
- fold change (FC) (Pseudomonas aeruginosa [17]): <=2
- fold change (FC) (Pseudomonas aeruginosa [18]): <=2
- fold change (FC) (Pseudomonas aeruginosa [19]): <=2
- fold change (FC) (Staphylococcus aureus [20]): <=2
- fold change (FC) (Staphylococcus aureus [21]): <=2
- fold change (FC) (Staphylococcus aureus [22]): <=2
- inhibition (INH) (Pseudomonas aeruginosa [23]): >90%
- inhibition (INH) (Staphylococcus aureus [24]): 55%
- inhibition (INH) (Staphylococcus aureus [25]): 75%
- inhibition (INH) (Staphylococcus aureus [26]): ~80%
- inhibition (INH) (Staphylococcus aureus [27]): ~80%
- fold change (FC) (Pseudomonas aeruginosa [28]): 8
- fold change (FC) (Staphylococcus aureus [29]): 4
- fold change (FC) (Pseudomonas aeruginosa [30]): 8
- fold change (FC) (Staphylococcus aureus [31]): 8
- fractional inhibitory concentration index (FICI) (Pseudomonas aeruginosa [32]): 0.563
- fractional inhibitory concentration index (FICI) (Staphylococcus aureus [33]): 0.375
